Patent publication US20080175794A1, “Substituted Pyridazinyl- and Pyrimidinyl-Quinolin-4-Ylamine Analogues” (NEUROGEN CORPORATION, priority 2005, published 2008)

Columns and labels:
[1] = target: T1, human capsaicin receptor (Homo sapiens, UniProt Q8NER1); assay: Calcium mobilization assay, determination of antagonist activity (Example 6); format: cell-based; settings: Table III; assay provided in Example 6; cells expressing human capsaicin receptor, capsaicin at EC50
T1 construct: expressed in transfected cells
T1 sequence (Q8NER1 whole entry): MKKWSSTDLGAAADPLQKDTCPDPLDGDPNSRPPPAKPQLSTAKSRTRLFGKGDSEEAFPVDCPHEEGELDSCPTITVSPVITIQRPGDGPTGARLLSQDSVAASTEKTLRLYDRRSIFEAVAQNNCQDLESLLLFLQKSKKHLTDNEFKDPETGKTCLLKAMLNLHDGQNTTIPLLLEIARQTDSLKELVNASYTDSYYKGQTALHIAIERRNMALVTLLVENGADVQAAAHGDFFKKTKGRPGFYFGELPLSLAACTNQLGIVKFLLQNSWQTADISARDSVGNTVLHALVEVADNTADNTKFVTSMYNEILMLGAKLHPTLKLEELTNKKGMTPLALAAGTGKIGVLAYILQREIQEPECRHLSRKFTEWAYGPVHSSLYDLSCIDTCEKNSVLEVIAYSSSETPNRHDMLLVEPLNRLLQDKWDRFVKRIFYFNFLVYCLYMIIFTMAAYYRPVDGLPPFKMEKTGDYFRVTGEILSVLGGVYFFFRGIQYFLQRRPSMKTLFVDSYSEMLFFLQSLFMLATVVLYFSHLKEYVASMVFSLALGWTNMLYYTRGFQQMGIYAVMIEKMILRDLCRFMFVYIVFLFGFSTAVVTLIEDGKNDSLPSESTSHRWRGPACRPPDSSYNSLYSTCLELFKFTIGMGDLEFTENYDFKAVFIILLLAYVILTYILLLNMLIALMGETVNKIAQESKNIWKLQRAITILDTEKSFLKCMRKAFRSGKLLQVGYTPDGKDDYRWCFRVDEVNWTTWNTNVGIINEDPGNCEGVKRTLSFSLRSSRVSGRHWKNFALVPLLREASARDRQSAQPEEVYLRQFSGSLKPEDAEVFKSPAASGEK
Outline: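 Stable HEK293 clones expressing full-length human capsaicin receptor, loaded with Fluo-3 AM in KRH buffer pH 7.4 (1–2 h, 37 °C). Test compound (1–5 μM final) preincubated 0.5–6 h at room temperature in the dark, then capsaicin added at its EC50. FLIPR/Fluoroskan calcium signal; IC50 as concentration halving the capsaicin response.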

[2] = target: VR (Homo sapiens, UniProt Q8NER1); settings: typical value, non-selective cation channel blocker binding to VR; cited from earlier work
Sequence of VR (Q8NER1 whole entry): as above

Row | Compound | IC50 [1] [nM] | Ki [2] [nM]
1 | O[C@H]1CCN(c2cc(C(F)(F)F)c(-c3cnc4c(Nc5ccc(C(F)(F)F)cn5)ccnc4n3)nn2)C1 [Compound 193] | < 1000 | 
2 | CCN(CCO)c1cc(C(F)(F)F)c(-c2cnc3c(Nc4ccc(C(F)(F)F)cn4)ccnc3n2)nn1 [Compound 194] | < 1000 | 
3 | OC1CCCN(c2cc(C(F)(F)F)c(-c3cnc4c(Nc5ccc(C(F)(F)F)cn5)ccnc4n3)nn2)C1 (stereo not drawn) [Compound 195, 1-[5-(trifluoromethyl)-6-(8-{[5-(trifluoromethyl)pyridin-2-yl]amino}pyrido[2,3-b]pyrazin-3-yl)pyridazin-3-yl]piperidin-3-ol] | < 1000 | 
4 | OC1CCN(c2cc(C(F)(F)F)c(-c3cnc4c(Nc5ccc(C(F)(F)F)cn5)ccnc4n3)nn2)CC1 [Compound 196, 1-[5-(trifluoromethyl)-6-(8-{[5-(trifluoromethyl)pyridin-2-yl]amino}pyrido[2,3-b]pyrazin-3-yl)pyridazin-3-yl]piperidin-4-ol] | < 1000 | 
5 | CC(C)N(CCO)c1cc(C(F)(F)F)c(-c2cnc3c(Nc4ccc(C(F)(F)F)cn4)ccnc3n2)nn1 [Compound 197, 2-{isopropyl[5-(trifluoromethyl)-6-(8-{[5-(trifluoromethyl)pyridin-2-yl]amino}pyrido[2,3-b]pyrazin-3-yl)pyridazin-3-yl]amino}ethanol] | < 1000 | 
6 | Cl.Cl.Cl.Cl.Cl.Cl.N.N.N.N.N.N.N.N.N.N.N.N.N.N.[O-2].[O-2].[Ru+3].[Ru+3].[Ru+4] [ruthenium red] |  | ≥ 140000

Now from value to compound, other results behind:

Row | IC50 [1] [nM] | Compound | Ki [2] [nM]
7 | < 1000 | CCN(C)c1cc(C(F)(F)F)c(-c2cnc3c(Nc4ccc(C(F)(F)F)cn4)ccnc3n2)nn1 [Compound 180, 3-{6-[ethyl(methyl)amino]-4-(trifluoromethyl)pyridazin-3-yl}-N-[5-(trifluoromethyl)pyridin-2-yl]pyrido[2,3-b]pyrazin-8-amine] | 
8 | < 1000 | COCCN(C)c1cc(C(F)(F)F)c(-c2cnc3c(Nc4ccc(C(F)(F)F)cn4)ccnc3n2)nn1 [Compound 181, 3-{6-[(2-methoxyethyl)(methyl)amino]-4-(trifluoromethyl)pyridazin-3-yl}-N-[5-(trifluoromethyl)pyridin-2-yl]pyrido[2,3-b]pyrazin-8-amine] | 
9 | < 1000 | CC(C)N(C)c1cc(C(F)(F)F)c(-c2cnc3c(Nc4ccc(C(F)(F)F)cn4)ccnc3n2)nn1 [Compound 185, 3-{6-[isopropyl(methyl)amino]-4-(trifluoromethyl)pyridazin-3-yl}-N-[5-(trifluoromethyl)pyridin-2-yl]pyrido[2,3-b]pyrazin-8-amine] | 
10 | < 1000 | CCOC(=O)CN(C)c1cc(C(F)(F)F)c(-c2cnc3c(Nc4ccc(C(F)(F)F)cn4)ccnc3n2)nn1 [Compound 187, ethyl N-methyl-N-[5-(trifluoromethyl)-6-(8-{[5-(trifluoromethyl)pyridin-2-yl]amino}pyrido[2,3-b]pyrazin-3-yl)pyridazin-3-yl]glycinate] | 
11 | < 1000 | COC1CCN(c2cc(C(F)(F)F)c(-c3cnc4c(Nc5ccc(C(F)(F)F)cn5)ccnc4n3)nn2)CC1 [Compound 188, 3-[6-(4-methoxypiperidin-1-yl)-4-(trifluoromethyl)pyridazin-3-yl]-N-[5-(trifluoromethyl)pyridin-2-yl]pyrido[2,3-b]pyrazin-8-amine] | 
12 | < 1000 | CC1CCN1c1cc(C(F)(F)F)c(-c2cnc3c(Nc4ccc(C(F)(F)F)cn4)ccnc3n2)nn1 (stereo not drawn) [Compound 189, 3-[6-(2-methylazetidin-1-yl)-4-(trifluoromethyl)pyridazin-3-yl]-N-[5-(trifluoromethyl)pyridin-2-yl]pyrido[2,3-b]pyrazin-8-amine] | 
